Test results: PubChem BioAssay AID1963977 (Molecular Pharmacology Branch, DTP, NCI, 2024)
Values joined by “and” are separate entries in the source; they are usually repeats but may differ in a detail not shown here. Equal entries are not always repeated.

System: 624824-186-R-J3-PDC multicell spheroids, viability
Experiment: Anticancer human tumor 624824-186-R-J3-PDC patient-derived colon adenocarcinoma cell line growth inhibition [PI3K]
Details: for viability, T/C: stronger effect = lower value
From the text: Combinatorial screen of targeted agents with the PI3K inhibitors inavolisib, alpelisib, duvelisib, and copanlisib in multi-cell type tumor spheroids
A high-throughput screen of multi-cell type tumor spheroids was designed to identify active combinations of targeted small molecules and PI3K pathway inhibitors. Complex spheroids include a stromal component modeled by human endothelial cells (HUVEC) and fibroblasts modeled by human mesenchymal stem cells (MSCs). The concentration ranges selected for each drug and investigational agent were based upon clinically achievable concentrations if the clinical Cmax of the agent was known.
Compounds. The drugs and investigational agents: inavolisib (NSC800729), alpelisib (NSC765974), duvelisib (NSC772469), copanlisib (NSC816437), ipatasertib (NSC767898), afuresertib (NSC778305), talazoparib (NSC767125), sapanisertib (NSC764658), selumetinib (NSC741078), tovorafenib (DAY101, NSC766906), vemurafenib (NSC761431), ravoxertinib (NSC781343), sotorasib (NSC818433), MRTX1133 (NSC 836407), abemaciclib (NSC 768073), palbociclib (NSC758247), venetoclax (NSC 766270), SY5609 (NSC837396), enzalutamide (NSC755605), and darolutamide (NSC825331), were obtained from the National Cancer Institute (NCI) Developmental Therapeutics Program Chemical Repository. The FDA-approved anticancer drug set is available from the NCI Developmental Therapeutics Program. […] The stock solutions were prepared in dimethyl sulfoxide (DMSO, Sigma-Aldrich, St. Louis, MO, cat. D2650) at 800-fold the tested concentration and stored at -70 degrees C prior to their use. All drugs and investigational agents were tested over a range starting from a high concentration at or near the clinical Cmax and decreasing in half-log increments. If the clinical Cmax for an agent had not been determined, the highest concentration tested was 10 microM.
Cell Culture. All cells were maintained in an incubator at 37 degrees C and 5% CO2 with 95% humidity. The PDC lines were cultured according to standard operating procedures established by the NCI PDMR (https://pdmr.cancer.gov/sops/default.htm). All PDCs were thawed and cultured in Matrigel-coated flasks prepared with a working solution of 1X Ham's F-12 nutrient mix, without supplementation (Invitrogen, Waltham, MA, cat. 11765054), 100 U/mL penicillin-streptomycin (Invitrogen, cat. 15140122), and 2.5% Matrigel (Corning Inc., Corning, NY, cat. 354248) for the first three passages. The 354836-022-R-J1-PDC, 475296-252-R-J1-PDC, and 997726-040-R-J2-PDC lines were cultured in 6A media, which includes advanced DMEM/F-12 (Thermo Fisher Scientific, cat. 12634028), 10 mM HEPES (Thermo Fisher Scientific, cat. 15630080), 1X GlutaMAX supplement (Thermo Fisher Scientific, cat. 35050061), 0.1 mg/mL primocin (InvivoGen, San Diego, CA, cat. ant-pm-2), 10% defined fetal bovine serum, heat inactivated (HyClone Laboratories Inc., Logan, UT, cat. SH30070.03HI), 50% L-WRN conditioned media (ATCC, cat. CRL-3276), 1.25 mM N-Acetyl-L-cysteine (Sigma-Aldrich, cat. A9165), 10 mM nicotinamide (Sigma-Aldrich, cat. N0636), 1X B-27 supplement (Thermo Fisher Scientific, cat. 17504044), 1X N-2 supplement (Thermo Fisher Scientific, cat. 17502048), and 10 microM Y-27632 dihydrochloride (Tocris Bioscience, Bristol, United Kingdom, cat. 1254). The 624824-186-R-J2-PDC line was cultured in 6C/Colon 1B media, which includes all 6A media components plus 50 ng/mL human EGF recombinant protein (Thermo Fisher Scientific, cat. PHG0311). […]

[1] = curve of first compound, second compound 0.00316 µM
[2] = curve of first compound, second compound 0.01 µM
[3] = curve of first compound, second compound 0.0316 µM
[4] = curve of first compound, second compound 0.1 µM
[5] = curve of first compound, second compound 0.316 µM
[6] = curve of first compound, second compound 1 µM
[7] = second compound 0.00316 µM, first compound 0.0316 µM
[8] = second compound 0.00316 µM, first compound 0.1 µM
[9] = second compound 0.01 µM, first compound 0.0316 µM
[10] = second compound 0.01 µM, first compound 0.1 µM
[11] = second compound 0.0316 µM, first compound 0.0316 µM
[12] = second compound 0.0316 µM, first compound 0.1 µM
[13] = second compound 0.1 µM, first compound 0.0316 µM
[14] = second compound 0.1 µM, first compound 0.1 µM
[15] = second compound 0.316 µM, first compound 0.0316 µM
[16] = second compound 0.316 µM, first compound 0.1 µM
[17] = second compound 1 µM, first compound 0.0316 µM
[18] = second compound 1 µM, first compound 0.1 µM
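Further: spheroids exposed to agents for seven days before luminescence read.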
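Wherever viability, T/C is given: luminescent signal used as a stand-in for spheroid viability; percent viability relative to DMSO vehicle control wells taken as 100%.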

C#Cc1c(F)ccc2cc(O)cc(-c3ncc4c(N5CC6CCC(C5)N6)nc(OCC56CCCN5CC(F)C6)nc4c3F)c12 (configuration not stated) was tested, and the viability, T/C (compound 0.0316 µM) was 120% and 98.2% and 102% (2×), the viability, T/C (compound 0.1 µM) was 105% and 102% (2×) and 101% and the viability, T/C (compound 0.316 µM) was 101% [middle of 4 runs]. For the same molecule, the viability, T/C (compound 1 µM) was 101% [middle of 4 runs], the viability, T/C (compound 3.16 µM) was 108% [middle of 4 runs] and the viability, T/C (compound 10 µM) was 107% [middle of 4 runs]. It also gave an IC50 (curve of compound) of over 10 µM.

Cn1ncc(Cl)c1-c1cc(C(=O)NC(CN)Cc2cccc(F)c2)sc1Cl (configuration not stated) was tested, and the viability, T/C (compound 0.0316 µM) was 104% [middle of 4 runs], the viability, T/C (compound 0.1 µM) was 101% (2×) and 112% and 104% and the viability, T/C (compound 0.316 µM) was 95.1% [middle of 4 runs]. The viability, T/C (compound 1 µM) was 76.3% [middle of 4 runs], the viability, T/C (compound 3.16 µM) was 67.9% [middle of 4 runs] and the IC50 (curve of compound) was 8.4 µM and > 10 µM and 5.42 µM.

In the case of CC(=O)c1c(C)c2cnc(Nc3ccc(N4CCNCC4)cn3)nc2n(C2CCCC2)c1=O + CC(Nc1ccc2c(c1)OCCn1cc(N3C(=O)OCC3C(F)F)nc1-2)C(N)=O, the IC50 [1] is reported as over 0.1 µM, the IC50 [2] is reported as over 0.1 µM and the IC50 [3] is reported as over 0.1 µM. It also gave an IC50 [4] of over 0.1 µM, an IC50 [5] of over 0.1 µM and an IC50 [6] of over 0.1 µM. For the same molecule, the viability, T/C (second compound 0.00316 µM, first compound 0.000316 µM) was 100%, the viability, T/C (second compound 0.00316 µM, first compound 0.001 µM) was 101% and the viability, T/C (second compound 0.00316 µM, first compound 0.00316 µM) was 101%. For the same molecule, the viability, T/C (second compound 0.00316 µM, first compound 0.01 µM) was 105%, the viability, T/C [7] was 99% and the viability, T/C [8] was 110%. For the same molecule, the viability, T/C (second compound 0.01 µM, first compound 0.000316 µM) was 108%, the viability, T/C (second compound 0.01 µM, first compound 0.001 µM) was 94.6% and the viability, T/C (second compound 0.01 µM, first compound 0.00316 µM) was 106%. It also gave a viability, T/C (second compound 0.01 µM, first compound 0.01 µM) of 102%, a viability, T/C [9] of 108% and a viability, T/C [10] of 106%. The viability, T/C (second compound 0.0316 µM, first compound 0.000316 µM) was 101%, the viability, T/C (second compound 0.0316 µM, first compound 0.001 µM) was 105% and the viability, T/C (second compound 0.0316 µM, first compound 0.00316 µM) was 84.5%. For the same molecule, the viability, T/C (second compound 0.0316 µM, first compound 0.01 µM) was 105%, the viability, T/C [11] was 104% and the viability, T/C [12] was 97.3%. It also gave a viability, T/C (second compound 0.1 µM, first compound 0.000316 µM) of 101%, a viability, T/C (second compound 0.1 µM, first compound 0.001 µM) of 99% and a viability, T/C (second compound 0.1 µM, first compound 0.00316 µM) of 95.7%. The viability, T/C (second compound 0.1 µM, first compound 0.01 µM) was 107%, the viability, T/C [13] was 107% and the viability, T/C [14] was 102%. It also gave a viability, T/C (second compound 0.316 µM, first compound 0.000316 µM) of 99.2%, a viability, T/C (second compound 0.316 µM, first compound 0.001 µM) of 95.5% and a viability, T/C (second compound 0.316 µM, first compound 0.00316 µM) of 106%. It also gave a viability, T/C (second compound 0.316 µM, first compound 0.01 µM) of 99.8%, a viability, T/C [15] of 108% and a viability, T/C [16] of 104%. The viability, T/C (second compound 1 µM, first compound 0.000316 µM) was 91.3%, the viability, T/C (second compound 1 µM, first compound 0.001 µM) was 96% and the viability, T/C (second compound 1 µM, first compound 0.00316 µM) was 97.9%. The viability, T/C (second compound 1 µM, first compound 0.01 µM) was 94.8%, the viability, T/C [17] was 88.5% and the viability, T/C [18] was 81.3%.

For CNC(=O)c1ccc(N2C(=S)N(c3ccc(C#N)c(C(F)(F)F)c3)C(=O)C2(C)C)cc1F + CC(Nc1ccc2c(c1)OCCn1cc(N3C(=O)OCC3C(F)F)nc1-2)C(N)=O, the IC50 [1] was over 10 µM, the IC50 [2] was over 10 µM and the IC50 [3] was over 10 µM. It also gave an IC50 [4] of over 10 µM, an IC50 [5] of over 10 µM and an IC50 [6] of over 10 µM. It also gave a viability, T/C [7] of 105%, a viability, T/C [8] of 104% and a viability, T/C (second compound 0.00316 µM, first compound 0.316 µM) of 104%. The viability, T/C (second compound 0.00316 µM, first compound 1 µM) was 87.4%, the viability, T/C (second compound 0.00316 µM, first compound 3.16 µM) was 97% and the viability, T/C (second compound 0.00316 µM, first compound 10 µM) was 106%. For the same molecule, the viability, T/C [9] was 103%, the viability, T/C [10] was 101% and the viability, T/C (second compound 0.01 µM, first compound 0.316 µM) was 108%. For the same molecule, the viability, T/C (second compound 0.01 µM, first compound 1 µM) was 97.1%, the viability, T/C (second compound 0.01 µM, first compound 3.16 µM) was 96.1% and the viability, T/C (second compound 0.01 µM, first compound 10 µM) was 99.1%. For the same molecule, the viability, T/C [11] was 95.4%, the viability, T/C [12] was 104% and the viability, T/C (second compound 0.0316 µM, first compound 0.316 µM) was 102%. It also gave a viability, T/C (second compound 0.0316 µM, first compound 1 µM) of 97.3%, a viability, T/C (second compound 0.0316 µM, first compound 3.16 µM) of 99.5% and a viability, T/C (second compound 0.0316 µM, first compound 10 µM) of 99.6%. The viability, T/C [13] was 99.6%, the viability, T/C [14] was 101% and the viability, T/C (second compound 0.1 µM, first compound 0.316 µM) was 103%. For the same molecule, the viability, T/C (second compound 0.1 µM, first compound 1 µM) was 101%, the viability, T/C (second compound 0.1 µM, first compound 3.16 µM) was 109% and the viability, T/C (second compound 0.1 µM, first compound 10 µM) was 80.3%. The viability, T/C [15] was 89.4%, the viability, T/C [16] was 90% and the viability, T/C (second compound 0.316 µM, first compound 0.316 µM) was 94.2%. The viability, T/C (second compound 0.316 µM, first compound 1 µM) was 97.8%, the viability, T/C (second compound 0.316 µM, first compound 3.16 µM) was 92% and the viability, T/C (second compound 0.316 µM, first compound 10 µM) was 82%. The viability, T/C [17] was 90.6%, the viability, T/C [18] was 89.2% and the viability, T/C (second compound 1 µM, first compound 0.316 µM) was 95.8%. For the same molecule, the viability, T/C (second compound 1 µM, first compound 1 µM) was 90.5%, the viability, T/C (second compound 1 µM, first compound 3.16 µM) was 88.9% and the viability, T/C (second compound 1 µM, first compound 10 µM) was 76.4%.
